Reference: patent US20140263071A1, “METHOD FOR COLLECTING METALS” (CHEMEC OY AB, priority 2011, published 2014)
Where two headings read alike, the source gives them in different places.

How the values were obtained:
[1] = Solubility of the compounds, molybdenum blue method, UV/Vis 880 nm (Example 6); type: physicochemical; conditions: saturated aqueous solution
Source text: The low solubility is achieved by using long carbon chain(s) or aromatic ring(s) in the bisphosphonate structure I. Advantageously, compound I contains 7-16 carbon atoms either in chain, branched chain or cyclic structure or in combination of these structural units between A and X, and preferably in the chain starting from the P-C-P bridging carbon and the number of heteroatomic functional groups excluding the phosphorous functionalities are limited to two or three groups. The solubility decreases even more if compound I contains functional groups which are capable to form twitter ions with each other. Typical examples of twitter ions are acids (e.g., —CO2H or —PO3H2) and bases (amines) in the same molecule. Solubilities of selected bisphosphonate compounds I were determined with UV/Vis spectrophotometer at 880 nm using molybdenum blue method (Finnish Standard Association SFS 3026: Determination of phosphate in water. Finnish Standard Association SFS, Helsinki Finland, 1986).
Solubilities of selected compounds were determined with UV/Vis Spectrophotometer at 880 nm using molybdenum blue method from saturated aqueous samples solutions (Finnish Standard Association SFS 3026: Determination of phosphate in water. Finnish Standard Association SFS, Helsinki Finland, 1986).

[2] = Concentration of diluted samples, recovery after 1:10000 dilution (Example 24); conditions: 1e 1 g in 10 liters
Procedure: A water solution (100 ml) containing 100 ppb of desired metallic element prepared from Merch Titrisol® standard was diluted to 10 liters of water, pH was adjusted and the mixture was treated with 1e (1 g) for 24 h with stirring. After filtration trough sintered disc (porosity G-4), the solids were decomposed by using microware digestion, the residue was dilution to known volume of water (10 ml) and metal concentrations were determined by using AAS method.

[3] = Expulsion of Cu^2+, Ni^2+ and Fe^3+ without and with activated carbon (Example 9); conditions: pH 3, without activated carbon
Procedure: (§1) A water solution (110 ml) containing known amount of single cationic element or elements, typically 0.5-200 ppm, was prepared from Merch Titrisol® standard solution. After adjusting pH by using acid (e.g. HCl or HNO3) or base (e.g. NaOH) to desired initial value, sample A (10 ml) was taken followed by adding 100 mg of selected solid complexation agent. The mixture was stirred at room temperature for 24 h and sample B (10 ml) was taken. Samples A and B were filtrated separately trough 0.2 μm syringe filter and the concentration of the studied element or elements in both solution was determined by using atomic absorption spectrophotometer. The expulsion percent was determined from the concentration differences between the sample solutions A and B.
Using the general procedure described above expulsion percent of Cu^2+, Ni^2+ and Fe^3+ cations were determined at pH 3, when compounds 2a, 2b, 5b, 6b and 6c were used as complexation agents. Experiments were repeated also by adding activated carbon (100 mg) to solution at the same time with the used complexation agent.

[4] = Collection of Cu^2+ ions from solution with the prepared bisphosphonates (Example 26); conditions: 1.00 ppm Cu^2+; pH 3; 50 mg bisphosphonate in 50 ml
Procedure: as §1
A solution containing 1.00 ppm of Cu^2+ cations at pH 3 was prepared and 50 ml of that solution was treated with the desired solid bisphosphonate (50 mg) using the procedure described in general procedure. Collection-% was determined for the following compounds (Cu^2+ collection-% in parenthesis): 3a (16%), 3b (88%), 3c (93%), 4 (95%), 5a (20%), 5b (18%), 5c (85%), 6b (48%), 6c (100%), 6d (100%), 7a (88%), 7b (100%), 8b (85%), 8c (88%), 8d (94%), 8e (73%) and 9b (76%).

[5] = Removal of Cr^3+ from acidic solution, TS 4 diluted 1:100 (Example 19); conditions: TS 4 diluted 1:100, pH 3.67, 1.0 g agent in 50 ml, 24 h
Procedure: A test solution containing 24000 mg/l of Na^+; 50-2000 mg/l of Ca^2+, Cr^3+, K^+ and Mg^2+; and trace amount of Al^3+, Fe^2/3+, Mn^2+, Ni^2+, Sr^2+, V^4+, and Zn^2+ cations were prepared.
TS 4 was diluted to 1:100 with water, pH (3.67) of the solution was determined and sample A was taken. A part (50 ml) of the diluted solution was treated with 1a, 6d or 7a (1.0 g) for 24 h with stirring at room temperature. After filtration trough 0.2 μm syringe filter, the expulsion per for Cr(III) was determined compared to original solution A. The results of expulsion per cents of Cr^3+ and some other elements are given in Table 13.

[6] = read-out: mg/l (solubility calculated for whole molecule)
[7] = read-out: mg/l P (solubility calculated as elemental phosphorus)

SMILES | solubility [1, 6] [mg/L] | solubility [1, 7] [mg/L] | Cu^2+ collection-% [4] [%] | further results
NCCCCCCCC(O)(P(=O)(O)O)P(=O)(O)O [Compound 1b, 8-Amino-1-hydroxyoctane-1,1-diyldiphosphonic acid] | 2220 | 426 |  | 
NCCCCCCCCC(O)(P(=O)(O)O)P(=O)(O)O [Compound 1c, 9-Amino-1-hydroxynonane-1,1-diyldiphosphonic acid] | 2180 | 400 |  | 
NCCCCCCCCCC(O)(P(=O)(O)O)P(=O)(O)O [Compound 1d, 10-Amino-1-hydroxydecane-1,1-diyldiphosphonic acid] | 227 | 40 |  | 
NCCCCCCCCCCCC(O)(P(=O)(O)O)P(=O)(O)O [Compound 1e, 12-Amino-1-hydroxydodecane-1,1-diyldiphosphonic acid] | 31 | 5 |  | Yield [%] (recovery) ([2]; Cd^2+, pH 3.6): 98%; Yield [%] (recovery) ([2]; Cr^3+, pH 3.0): 98%; Yield [%] (recovery) ([2]; Cr^3+, pH 7.0): 97%; Yield [%] (recovery) ([2]; Hg^2+, pH 2.0): 93%; Yield [%] (recovery) ([2]; Hg^2+, pH 4.9): 94%; Yield [%] (recovery) ([2]; Hg^2+, pH 9.2): 94%; Yield [%] (recovery) ([2]; Hg^+, pH 2.0): 89%; Yield [%] (recovery) ([2]; Hg^+, pH 5.0): 92%; Yield [%] (recovery) ([2]; Hg^+, pH 9.2): 92%; Yield [%] (recovery) ([2]; Pb^2+, pH 3.2): 100%; Yield [%] (recovery) ([2]; Pb^2+, pH 5.0): 85%; Yield [%] (recovery) ([2]; UO2^2+, pH 3.0): 87%
NCCCCCCCCCCCCCCCC(O)(P(=O)(O)O)P(=O)(O)O [Compound 1f, 16-Amino-1-hydroxyhexadecane-1,1-diyldiphosphonic acid] | 42 | 6 |  | 
CNCCCCCCCCCCC(O)(P(=O)(O)O)P(=O)(O)O [Compound 2a, 1-Hydroxy-11-(methylamino)undecane-1,1-diyldiphosphonic acid] | 594 | 97 |  | Expulsion [%] Cu^2+ [3]: 16.4%; Expulsion [%] Fe^3+ [3]: 44.7%; Expulsion [%] Ni^2+ [3]: 13.3%
O=P(O)(O)C(O)(CCCCCCCCCCO)P(=O)(O)O [Compound 2b, 1,11-Dihydroxyundecane-1,1-diyldiphosphonic acid] | 22900 | 3870 |  | Expulsion [%] Cu^2+ [3]: 100.0%; Expulsion [%] Fe^3+ [3]: 92.6%; Expulsion [%] Ni^2+ [3]: 6.9%
CCCCCC(O)(P(=O)(O)O)P(=O)(O)O [Compound 3a, 1-Hydroxyhexane-1,1-diyldiphosphonic acid] | 54 | 12 | 16 | 
CCCCCCCCC(O)(P(=O)(O)O)P(=O)(O)O [Compound 3b, 1-Hydroxynonane-1,1-diyldiphosphonic acid] | 5 | 1 | 88 | 
CCCCCCCCCCC(O)(P(=O)(O)O)P(=O)(O)O [Compound 3c, 1-Hydroxyundecane-1,1-diyldiphosphonic acid] |  | 0.3 | 93 | 
CCCCCCCC/C=C\CCCCCCCC(O)(P(=O)(O)O)P(=O)(O)O [Compound 4, (Z)-1-Hydroxyoctadec-9-ene-1,1-diyldiphosphonic acid] |  |  | 95 | 
O=P(O)(O)C(O)(CCCCc1ccccc1)P(=O)(O)O [Compound 5a, 1-Hydroxy-5-phenylpentane-1,1-diyldiphosphonic acid] |  | 1.8 | 20 | 
Nc1ccc(CCCC(O)(P(=O)(O)O)P(=O)(O)O)cc1 [Compound 5b, 4-(4-Aminophenyl)-1-hydroxybutane-1,1-diyldiphosphonic acid] |  | 79 | 18 | Expulsion [%] Cu^2+ [3]: 21.4%; Expulsion [%] Fe^3+ [3]: 56.3%; Expulsion [%] Ni^2+ [3]: 7.9%
O=P(O)(O)C(O)(CCCCCCc1ccccc1)P(=O)(O)O [Compound 5c, 1-Hydroxy-7-phenylheptane-1,1-diyldiphosphonic acid] |  | 0.2 | 85 | 
CCCCCCCCCCC(P(=O)(O)O)P(=O)(O)O [Compound 6b, Undecane-1,1-diyldiphosphonic acid] |  | 0.7 | 48 | Expulsion [%] Cu^2+ [3]: 1.3%; Expulsion [%] Fe^3+ [3]: 3.9%; Expulsion [%] Ni^2+ [3]: 17.2%
CCCCCCCCCCCCC(P(=O)(O)O)P(=O)(O)O [Compound 6c, Tridecane-1,1-diyldiphosphonic acid] |  | 0.2 | 100 | Expulsion [%] Cu^2+ [3]: 20.8%; Expulsion [%] Fe^3+ [3]: 19.0%; Expulsion [%] Ni^2+ [3]: 20.8%
CCCCCCCCCCCCCCCCC(P(=O)(O)O)P(=O)(O)O [Compound 6d, Heptadecane-1,1-diyldiphosphonic acid] |  | 0.03 | 100 | Expulsion [%] Ca^2+ ([5]; Ca^2+): 11%; Expulsion [%] Cr^3+ [5]: 100%; Expulsion [%] K^+ ([5]; K^+): 52%; Expulsion [%] Mg^2+ ([5]; Mg^2+): 80%; Expulsion [%] Na^+ ([5]; Na^+): 39%
CCCCCCCCC(N)(P(=O)(O)O)P(=O)(O)O [Compound 7a, 1-Aminononane-1,1-diyldiphosphonic acid] |  | 0.08 | 88 | Expulsion [%] Cr^3+ [5]: 85%
CCCCCCCCCC(N)(P(=O)(O)O)P(=O)(O)O [Compound 7b, 1-Aminodecane-1,1-diyldiphosphonic acid] |  | 0.05 | 100 | 
C[N+](C)(C)CCCCCCCCCCC(O)(P(=O)(O)O)P(=O)(O)O.[Cl-] [Compound 8b, 11-Hydroxy-N,N,N-trimethyl-11,11-diphosphonoundecan-1-aminium chloride] |  |  | 85 | 
CC(=O)NCCCCCCCCCCC(O)(P(=O)(O)O)P(=O)(O)O [Compound 8c, 11-Acetamido-1-hydroxyundecane-1,1-diyldiphosphonic acid] |  |  | 88 | 
O=C(O)CCCCCCCCCCSCC(P(=O)(O)O)P(=O)(O)O [Compound 8d, 11-((2,2-diphosphonoethyl)thio)undecanoic acid] |  |  | 94 | 
O=C(O)CCCCCNCC(P(=O)(O)O)P(=O)(O)O [Compound 8e, 6-((2,2-diphosphonoethyl)amino)hexanoic acid] |  |  | 73 | 
CCCCCCCCCCCC(=O)OC(C)(P(=O)(O)O)P(=O)(O)O [Compound 9b, 1-(Dodecanoyloxy)ethane-1,1-diyldiphosphonic acid] |  |  | 76 | 
